Legend:
KRAS G12V = KRAS G12V (Homo sapiens, UniProt P01116, G12V); experiment: KRAS G12V GDP-GTP exchange assay (bodipy-GDP for GppNHp, with SOS1); format: biochemical; details: 2.5 nM bodipy loaded KRAS G12V, 3 hours after GppNHp-SOS1; read-out: G12V_exchange (KRAS_G12V exchange assay IC50)
Method: (§1) The inhibitor potency of the exemplified compounds was determined in a fluorescence based guanine nucleotide exchange assay, which measures the exchange of bodipy-GDP (fluorescently labeled GDP) for GppNHp (Non-hydrolyzable GTP analog) to generate the active state of KRAS in the presence of SOS1 (guanine nucleotide exchange factor). Inhibitors were serially diluted in DMSO and a volume of 0.1 μL was transferred to the wells of a black low volume 384-well plate. 5 μL/well volume of bodipy-loaded KRAS G12C diluted to 5 nM in assay buffer (25 mM Hepes pH 7.5, 50 mM NaCl, 10 mM MgCl2 and 0.01% Brij-35) was added to the plate and pre-incubated with inhibitor for 2 hours at ambient temperature. Appropriate controls (enzyme with no inhibitor or with a G12C inhibitor (AMG-510)) were included on the plate. The exchange was initiated by the addition of a 5 μL/well volume containing 1 mM GppNHp and 300 nM SOS1 in assay buffer. The 10 μL/well reaction concentration of the bodipy-loaded KRAS G12C, GppNHp, and SOS1 were 2.5 nM, 500 uM, and 150 nM, respectively. The reaction plates were incubated at ambient temperature for 2 hours, a time estimated for complete GDP-GTP exchange in the absence of inhibitor. For the KRAS G12D and G12V mutants, similar guanine nucleotide exchange assays were used with 2.5 nM as final concentration for the bodipy loaded KRAS proteins and with 4 hours and 3 hours incubation after adding GppNHp-SOS1 mixture for G12D and G12V respectively. A cyclic peptide described to selectively bind G12D mutant (Sakamoto et al., BBRC 484.3 (2017), 605-611) or internal compounds with confirmed binding were used as positive controls in the assay plates. Fluorescence intensities were measured on a PheraStar plate reader instrument (BMG Labtech) with excitation at 485 nm and emission at 520 nm.
(§2) Either GraphPad prism or XLfit was used to analyze the data. The IC50 values were derived by fitting the data to a four parameter logistic equation producing a sigmoidal dose-response curve with a variable Hill coefficient. Prism equation: Y=Bottom+(Top−Bottom)/(1+10^((Log IC50−X)*Hill slope)); XLfit equation: Y=(A+((B−A)/(1+((X/C)^D)))) where X is the logarithm of inhibitor concentration and Y is the response.

KRAS G12D = KRAS G12D (Homo sapiens, UniProt P01116, G12D); experiment: KRAS G12D GDP-GTP exchange assay (bodipy-GDP for GppNHp, with SOS1); format: biochemical; details: 2.5 nM bodipy loaded KRAS G12D, 4 hours after GppNHp-SOS1; read-out: G12D_exchange (KRAS_G12D exchange assay IC50)
Method: as §1, §2

KRAS G12D, sequence (P01116 1-188 isoform P01116-2 G12D): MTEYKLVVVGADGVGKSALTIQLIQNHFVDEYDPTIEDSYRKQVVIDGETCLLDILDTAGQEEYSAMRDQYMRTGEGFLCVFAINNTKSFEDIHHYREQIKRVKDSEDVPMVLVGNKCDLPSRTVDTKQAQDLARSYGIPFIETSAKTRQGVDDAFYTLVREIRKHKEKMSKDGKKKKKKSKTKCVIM
KRAS G12V, sequence (P01116 1-188 isoform P01116-2 G12V): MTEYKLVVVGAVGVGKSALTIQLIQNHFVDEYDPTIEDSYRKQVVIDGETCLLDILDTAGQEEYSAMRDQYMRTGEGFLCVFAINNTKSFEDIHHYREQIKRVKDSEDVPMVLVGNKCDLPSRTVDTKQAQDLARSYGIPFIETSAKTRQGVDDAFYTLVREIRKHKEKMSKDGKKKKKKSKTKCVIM

IC50 (KRAS G12V) [nM] | IC50 (KRAS G12D) [nM] | SMILES
100 to 1000 | ≤ 100 | CN1CCC[C@H]1COc1nc2c(F)c(-c3cc(O)cc4ccccc34)c(CCC#N)cc2c2c1c(-c1ccc(=O)[nH]c1)cn2C1C2CNC1C2 (stereo partly drawn) [Example 42, 3-(1-(2-azabicyclo[2.1.1]hexan-5-yl)-6-fluoro-7-(3-hydroxynaphthalen-1-yl)-4-(((S)-1-methylpyrrolidin-2-yl)methoxy)-3-(6-oxo-1,6-dihydropyridin-3-yl)-1H-pyrrolo[3,2-c]quinolin-8-yl)propanenitrile]
≤ 100 | ≤ 100 | CN(C)C(=O)CCc1cc2c(OC[C@@H]3CCCN3C)nc3c(F)c(-c4cc(O)cc5ccccc45)c(CCC#N)cc3c2n1C1C2CNC1C2 (stereo partly drawn) [Example 30, 3-(1-(2-azabicyclo[2.1.1]hexan-5-yl)-8-(2-cyanoethyl)-6-fluoro-7-(3-hydroxynaphthalen-1-yl)-4-(((S)-1-methylpyrrolidin-2-yl)methoxy)-1H-pyrrolo[3,2-c]quinolin-2-yl)-N,N-dimethylpropanamide]
≤ 100 | ≤ 100 | COC(=O)CCc1cc2c(OC[C@@H]3CCCN3C)nc3c(F)c(-c4cc(O)cc5ccccc45)c(CCC#N)cc3c2n1C1C2CNC1C2 (single isomer, unassigned) [Example 29]
100 to 1000 | ≤ 100 | CN1CCC[C@H]1COc1nc2c(F)c(-c3cc(O)cc4ccccc34)c(CCC#N)cc2c2c1c(C(=O)NCc1ccccc1)cn2C1C2CNC1C2 (stereo partly drawn) [Example 45, N-Benzyl-1-(2-azabicyclo[2.1.1]hexan-5-yl)-8-(2-cyanoethyl)-6-fluoro-7-(3-hydroxynaphthalen-1-yl)-4-(((S)-1-methylpyrrolidin-2-yl)methoxy)-1H-pyrrolo[3,2-c]quinoline-3-carboxamide]
100 to 1000 | ≤ 100 | CN1CCC[C@H]1COc1nc2c(F)c(-c3cc(O)cc4ccccc34)c(CCC#N)cc2c2c1c(-c1cnn(C)c1)cn2C1C2CNC1C2 (stereo partly drawn) [Example 38, 3-(1-(2-azabicyclo[2.1.1]hexan-5-yl)-6-fluoro-7-(3-hydroxynaphthalen-1-yl)-3-(1-methyl-1H-pyrazol-4-yl)-4-(((S)-1-methylpyrrolidin-2-yl)methoxy)-1H-pyrrolo[3,2-c]quinolin-8-yl)propanenitrile]
≤ 100 | ≤ 100 | CN1CCC[C@H]1COc1nc2c(F)c(-c3cc(O)cc4ccccc34)c(CCC#N)cc2c2c1cc(-c1cnn(C)c1)n2C1C2CNC1C2 (stereo partly drawn) [Example 32, 3-(1-(2-azabicyclo[2.1.1]hexan-5-y1)-6-fluoro-7-(3-hydroxynaphthalen-1-y1)-2-(1-methyl-1H-pyrazol-4-y1)-4-(((S)-1-methylpyrrolidin-2-yl)methoxy)-1H-pyrrolo[3,2-c]quinolin-8-yl)propanenitrile]
100 to 1000 | ≤ 100 | CN1CCC[C@H]1COc1nc2c(F)c(-c3cc(O)cc4ccccc34)c(CCC#N)cc2c2c1ccn2C1C2CNC1C2 (stereo partly drawn) [Example 33, 3-(1-(2-azabicyclo[2.1.1]hexan-5-yl)-6-fluoro-7-(3-hydroxynaphthalen-1-yl)-4-(((S)-1-methylpyrrolidin-2-yl)methoxy)-1H-pyrrolo[3,2-c]quinolin-8-yl)propanenitrile]
100 to 1000 | ≤ 100 | CN1CCC[C@H]1COc1nc2c(F)c(-c3cc(O)cc4ccccc34)c(CCC#N)cc2c2c1c(C(=O)NCCO)cn2C1C2CNC1C2 (stereo partly drawn) [Example 44, 1-(2-azabicyclo[2.1.1]hexan-5-yl)-8-(2-cyanoethyl)-6-fluoro-N-(2-hydroxyethyl)-7-(3-hydroxynaphthalen-1-yl)-4-(((S)-1-methylpyrrolidin-2-yl)methoxy)-1H-pyrrolo[3,2-c]quinoline-3-carboxamide]
100 to 1000 | ≤ 100 | CN1CCC[C@H]1COc1nc2c(F)c(-c3cc(O)cc4ccccc34)c(CCC#N)cc2c2c1c(Cl)cn2C1C2CNC1C2 (stereo partly drawn) [Example 43, 3-(1-(2-azabicyclo[2.1.1]hexan-5-yl)-3-chloro-6-fluoro-7-(3-hydroxynaphthalen-1-yl)-4-(((S)-1-methylpyrrolidin-2-yl)methoxy)-1H-pyrrolo[3,2-c]quinolin-8-yl)propanenitrile]
100 to 1000 | 100 to 1000 | COC(=O)CCc1c(N2CC(N(C)C)C2)c2c(OC)nc3c(F)c(-c4cc(O)cc5ccccc45)c(CCC#N)cc3c2n1[C@H]1[C@H]2CN[C@@H]1C2 [Example 49, methyl 3-(1-((1R,4R,5S)-2-azabicyclo[2.1.1]hexan-5-yl)-8-(2-cyanoethyl)-3-(3-(dimethylamino)azetidin-1-yl)-6-fluoro-7-(3-hydroxynaphthalen-1-yl)-4-methoxy-1H-pyrrolo[3,2-c]quinolin-2-yl)propanoate]
100 to 1000 | ≤ 100 | Cc1ncc(-c2cn(C3C4CNC3C4)c3c2c(OC[C@@H]2CCCN2C)nc2c(F)c(-c4cc(O)cc5ccccc45)c(CCC#N)cc23)o1 (stereo partly drawn) [Example 36, 3-(1-(2-azabicyclo[2.1.1]hexan-5-yl)-6-fluoro-7-(3-hydroxynaphthalen-1-yl)-3-(2-methyloxazol-5-yl)-4-(((S)-1-methylpyrrolidin-2-yl)methoxy)-1H-pyrrolo[3,2-c]quinolin-8-yl)propanenitrile]
≤ 100 | ≤ 100 | CN1CCC[C@H]1COc1nc2c(F)c(-c3cc(O)cc4ccccc34)c(CCC#N)cc2c2c1cc(-c1ccn(C)n1)n2C1C2CNC1C2 (stereo partly drawn) [Example 39, 3-(1-(2-azabicyclo[2.1.1]hexan-5-yl)-6-fluoro-7-(3-hydroxynaphthalen-1-yl)-2-(1-methyl-1H-pyrazol-3-yl)-4-(((S)-1-methylpyrrolidin-2-yl)methoxy)-1H-pyrrolo[3,2-c]quinolin-8-yl)propanenitrile]
100 to 1000 | ≤ 100 | CN1CCC[C@H]1COc1nc2c(F)c(-c3cc(O)cc4ccccc34)c(CCC#N)cc2c2c1c(-c1cccnc1)cn2C1C2CNC1C2 (stereo partly drawn) [Example 35, 3-(1-(2-azabicyclo[2.1.1]hexan-5-yl)-6-fluoro-7-(3-hydroxynaphthalen-1-yl)-4-(((S)-1-methylpyrrolidin-2-yl)methoxy)-3-(pyridin-3-yl)-1H-pyrrolo[3,2-c]quinolin-8-yl)propanenitrile]
≤ 100 | ≤ 100 | CN1CCC[C@H]1COc1nc2c(F)c(-c3cc(O)cc4ccccc34)c(CCC#N)cc2c2c1c(-c1cn[nH]c1)cn2C1C2CNC1C2 (stereo partly drawn) [Example 41, 3-(1-(2-azabicyclo[2.1.1]hexan-5-yl)-6-fluoro-7-(3-hydroxynaphthalen-1-yl)-4-(((S)-1-methylpyrrolidin-2-yl)methoxy)-3-(1H-pyrazol-4-yl)-1H-pyrrolo[3,2-c]quinolin-8-yl)propanenitrile]
≤ 100 | ≤ 100 | CCOc1nc2c(F)c(-c3cc(O)cc4ccccc34)c(CCC#N)cc2c2c1cc(CCC(=O)N(C)C)n2[C@H]1[C@H]2CN[C@@H]1C2 [Example 48, 3-(1-((1R,4R,5S)-2-azabicyclo[2.1.1]hexan-5-yl)-8-(2-cyanoethyl)-4-ethoxy-6-fluoro-7-(3-hydroxynaphthalen-1-yl)-1H-pyrrolo[3,2-c]quinolin-2-yl)-N,N-dimethylpropanamide]
≤ 100 | ≤ 100 | CCCc1cc2c(OC[C@@H]3CCCN3C)nc3c(F)c(-c4cc(O)cc5ccccc45)c(CCC#N)cc3c2n1C1C2CNC1C2 (stereo partly drawn) [Example 31, 3-(1-(2-azabicyclo[2.1.1]hexan-5-yl)-6-fluoro-7-(3-hydroxynaphthalen-1-yl)-4-(((S)-1-methylpyrrolidin-2-yl)methoxy)-2-propyl-1H-pyrrolo[3,2-c]quinolin-8-yl)propanenitrile]
100 to 1000 | ≤ 100 | Cc1ncc(-c2cn(C3C4CNC3C4)c3c2c(OC[C@@H]2CCCN2C)nc2c(F)c(-c4cc(O)cc5ccccc45)c(CCC#N)cc23)s1 (stereo partly drawn) [Example 37, 3-(1-(2-azabicyclo[2.1.1]hexan-5-yl)-6-fluoro-7-(3-hydroxynaphthalen-1-yl)-4-(((S)-1-methylpyrrolidin-2-yl)methoxy)-3-(2-methylthiazol-5-yl)-1H-pyrrolo[3,2-c]quinolin-8-yl)propanenitrile]
1000 to 5000 | 100 to 1000 | CN1CCC[C@H]1COc1nc2c(F)c(-c3cc(O)cc4ccccc34)c(CCC#N)cc2c2c1cc(Cc1ccccc1)n2C1C2CNC1C2 (stereo partly drawn) [Example 40, 3-(2-benzyl-1-(2-azabicyclo[2.1.1]hexan-5-yl)-6-fluoro-7-(3-hydroxynaphthalen-1-yl)-4-(((S)-1-methylpyrrolidin-2-yl)methoxy)-1H-pyrrolo[3,2-c]quinolin-8-yl)propanenitrile]

— patent US20210355121A1, “FUSED TRICYCLIC KRAS INHIBITORS” (Incyte Corporation, priority 2020, published 2021)
